Source: patent US7105675B2, “Pyridomorphinans, thienomorphinans and use thereof” (Southern Research Institute, priority 1999, dated 2006)
Like-named read-outs stand apart in the source and are kept apart here.

Experiments:
μ opioid receptor = target: T1, μ opioid receptor (Rattus norvegicus, UniProt P33535); assay: Radioligand binding, mu sites, displacement of [3H]DAMGO in rat brain membranes
T1 construct: Rat membranes were prepared each day using a partially thawed frozen rat brain; from tissue; host or cells: rat brain membranes
T1 sequence (P33535 whole entry): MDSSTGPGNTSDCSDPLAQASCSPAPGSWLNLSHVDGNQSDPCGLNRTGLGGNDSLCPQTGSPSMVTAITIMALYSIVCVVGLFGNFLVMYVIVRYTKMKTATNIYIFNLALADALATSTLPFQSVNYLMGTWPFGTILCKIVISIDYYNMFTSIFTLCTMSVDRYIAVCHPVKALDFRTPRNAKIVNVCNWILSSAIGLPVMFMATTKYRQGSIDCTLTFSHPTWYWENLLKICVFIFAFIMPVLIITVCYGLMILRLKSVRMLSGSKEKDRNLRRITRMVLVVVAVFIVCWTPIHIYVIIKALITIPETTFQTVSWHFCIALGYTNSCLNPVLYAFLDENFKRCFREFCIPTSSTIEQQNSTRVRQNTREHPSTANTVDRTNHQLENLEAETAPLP
Experimental: (§1) Radioligand Binding Assays. Mu binding sites were labeled using [^3H]DAMGO (1–3 nM). Rat membranes were prepared each day using a partially thawed frozen rat brain which was homogenized with a polytron in 10 mL/brain of ice cold 10 mM Tris-HCl, pH 7.0. Membranes were then centrifuged twice at 30,000 g for 10 min and resuspended with ice-cold buffer following each centrifugation. After the second centrifugation, the membranes were resuspended in 50 mM Tris-HCl, pH 7.4 (50 mL/brain) at 25° C. Incubations proceeded for 2 h at 25° C. in 50 mM Tris-HCl, pH 7.4, along with a protease inhibitor cocktail (PIC). The nonspecific binding was determined using 20 μM of levallorphan. Delta binding sites were labeled using [^3]DADLE (2 nM) and rat brain membranes. Rat membranes were prepared each day using a partially thawed frozen rat brain which was homogenized with a polytron in 10 mL/brain of ice cold 10 mM Tris-HCl, pH 7.0. Membranes were then centrifuged twice at 30,000 g for 10 min and resuspended with ice-cold buffer following each centrifugation. After the second centrifugation, the membranes were resuspended in 50 mM Tris-HCl, pH 7.4 (50 mL/brain) at 25° C. Incubations proceeded for 2 h at 25° C. in 50 mM Tris-HCl pH 7.4, containing 100 mM choline chloride, 3 mM MnCl2, and 100 nM DAMGO to block binding to μ sites, and PIC. Nonspecific binding was determined using 20 μM levallorphan. Kappa binding sites were labeled using [^3H]U69,593 (2 nM). Guinea pig brain membranes were prepared each day using partially thawed guinea pig brain which was homogenized with a polytron in 10 mL/brain of ice cold 10 mM Tris-HCl pH 7.0. The membranes were then centrifuged twice at 30,000 g for 10 min and resuspended with ice-cold buffer following each centrifugation. After the second centrifugation, the membranes were resuspended in 50 mM Tris-HCl, pH 7.4 (75 mL/brain) at 25° C. Incubations proceeded for 2 h at 25° C. in 50 mM Tris-HCl, pH 7.4, containing 1 μg/mL of captopril and PIC. Nonspecific binding was determined using 1 μM U69,593. Each ^3H ligand was displaced by 8–10 concentrations of test drug, two times. Compounds were prepared as 1 mM solution with 10 mM Tris buffer (pH 7.4) containing 10% DMSO before drug dilution. All drug dilutions were done at 10 mM Tris-HCl, pH 7.4, containing 1 mg/mL bovine serum albumin. All washes were done with ice-cold 10 mM Tris-HCl, pH 7.4. The IC50 and slope factor (N) were obtained by using the program MLAB-PC (Civilized Software, Bethesda, Md.). Ki values were calculated according to the equation Ki=IC50/(1+[L]/Kd).

[1] = target: T2, δ opioid receptor (DPDPE) in MVD (Mus musculus, UniProt P32300); assay: Antagonist activity against DPDPE in electrically stimulated mouse vas deferens (MVD); assay type: cell-based; details: for antagonist activity DPDPE (δ) MVD IC50 ratio: 1 μM compound, 30 min incubation, IC50 of DPDPE with antagonist divided by control IC50; for Ke selectivity ratio μδ: Ke GPI (μ) over Ke MVD (δ)
T2 construct: Electrically-induced smooth muscle contractions of mouse vas deferens and strips of guinea pig ileum longitudinal muscle myenteric plexus were used; from tissue; host or cells: mouse vas deferens (male ICR mice)
T2 sequence (P32300 whole entry): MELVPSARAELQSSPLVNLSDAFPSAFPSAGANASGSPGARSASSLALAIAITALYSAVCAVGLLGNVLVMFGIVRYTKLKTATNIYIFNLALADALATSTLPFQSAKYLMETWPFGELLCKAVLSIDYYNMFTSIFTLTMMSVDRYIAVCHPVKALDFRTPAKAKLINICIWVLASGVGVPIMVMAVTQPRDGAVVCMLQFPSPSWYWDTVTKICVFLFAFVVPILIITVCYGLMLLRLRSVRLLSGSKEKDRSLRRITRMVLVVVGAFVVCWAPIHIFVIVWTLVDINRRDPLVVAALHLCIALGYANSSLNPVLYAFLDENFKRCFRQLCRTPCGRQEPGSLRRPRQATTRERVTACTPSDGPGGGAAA
Experimental: (§2) Bioassays in GPI and MVD smooth muscle preparations. Electrically-induced smooth muscle contractions of mouse vas deferens and strips of guinea pig ileum longitudinal muscle myenteric plexus were used. Tissues came from maile ICR mice weighing 25–40 g and male Hartley guinea pigs weighing 250–500 g. The tissues were tied to gold chain with suture silk, suspended in 20 mL baths containing 37° C. oxygenated (95% O2, 5% CO2) Krebs bicarbonate solution (magnesium free for the MVD), and allowed to equilibrate for 15 min. The tissues were then stretched to optimal length previously determined to be 1 g tension (0.5 g for MVD) and allowed to equilibrate for 15 min. The tissues were stimulated transmurally between platinum wire electrodes at 0.1 Hz, 0.4 ms pulses (2-ms pulses for MVD), and supramaximal voltage. An initial dose-response curve of DPDPE or PL-017 was constructed at the start of each assay to establish tissue effects, allowing each tissue to be used as its own control.
(§3) Tissues not producing typical results were not used. Experimental compounds were added to the baths in 14–60 μL volumes. Succeeding doses of argonist were added cumulatively to the bath at 3 minute intervals to produce a concentration-response curve. The tissues were then washed extensively with fresh buffer until the original contraction height was re-established. […] Antagonist effects to DPDPE and PL-017 were assayed after incubation of the tissues with 1 μM concentration of the compound in the bath for 30 minutes. The tissues were then washed with fresh buffer for 30 min, and the agonist dose-response curve was repeated. Rightward shifts in the dose-response curves were calculated by dividing the antagonized dose-response curve IC50 value by the unantagoniced IC50 value. IC50 values represent the mean of two to four tissues. IC50 estimates and their associated standard errors were determined by using a computerized nonlinear least-squares method.

[2] = tested on: μ opioid receptor (PL017) in GPI; assay: Antagonist activity against PL-017 in electrically stimulated guinea pig ileum (GPI); assay type: cell-based; details: for antagonist activity PL017 (μ) GPI IC50 ratio: 1 μM compound, 30 min incubation, IC50 of PL-017 with antagonist divided by control IC50; for antagonist activity PL017 (μ) GPI Ke: Ke = [antagonist]/(IC50 ratio − 1), PL-017 as agonist, n = 3
Experimental: as §2, §3

δ opioid receptor = δ opioid receptor (Rattus norvegicus, UniProt P33533); assay: Radioligand binding, delta sites, displacement of [3H]DADLE in rat brain membranes; parameters: Rat membranes were prepared each day using a partially thawed frozen rat brain; from tissue; host or cells: rat brain membranes; details: for Selectivity Ratio κ1δ / Selectivity Ratio μ/δ: ratio of Ki values
δ opioid receptor, sequence (P33533 whole entry): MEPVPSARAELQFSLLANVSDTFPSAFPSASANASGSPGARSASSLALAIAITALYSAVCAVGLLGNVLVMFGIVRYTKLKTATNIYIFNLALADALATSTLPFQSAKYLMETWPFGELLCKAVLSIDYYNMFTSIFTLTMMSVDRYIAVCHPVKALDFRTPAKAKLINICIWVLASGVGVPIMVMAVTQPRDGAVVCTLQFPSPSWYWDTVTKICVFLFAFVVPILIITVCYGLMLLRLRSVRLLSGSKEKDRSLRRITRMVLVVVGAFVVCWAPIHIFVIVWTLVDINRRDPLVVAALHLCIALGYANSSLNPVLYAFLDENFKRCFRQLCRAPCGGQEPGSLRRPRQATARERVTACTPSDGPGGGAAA
Experimental: as §1

[3] = tested on: guinea pig ileum longitudinal muscle myenteric plexus; assay: Agonist activity in GPI smooth muscle preparation, inhibition of contraction; assay type: cell-based; details: for inhibition at 1 µM: Cavia porcellus, read-out: agonist activity GPI IC50 (nM) or % max resp
Experimental: as §2, §3

κ1 opioid receptor = target: T3, κ1 opioid receptor (Cavia porcellus, UniProt P41144); assay: Radioligand binding, kappa sites, displacement of [3H]U69,593 in guinea pig brain membranes
T3 construct: Guinea pig brain membranes were prepared each day using partially thawed guinea pig brain; from tissue; host or cells: guinea pig brain membranes
T3 sequence (P41144 whole entry): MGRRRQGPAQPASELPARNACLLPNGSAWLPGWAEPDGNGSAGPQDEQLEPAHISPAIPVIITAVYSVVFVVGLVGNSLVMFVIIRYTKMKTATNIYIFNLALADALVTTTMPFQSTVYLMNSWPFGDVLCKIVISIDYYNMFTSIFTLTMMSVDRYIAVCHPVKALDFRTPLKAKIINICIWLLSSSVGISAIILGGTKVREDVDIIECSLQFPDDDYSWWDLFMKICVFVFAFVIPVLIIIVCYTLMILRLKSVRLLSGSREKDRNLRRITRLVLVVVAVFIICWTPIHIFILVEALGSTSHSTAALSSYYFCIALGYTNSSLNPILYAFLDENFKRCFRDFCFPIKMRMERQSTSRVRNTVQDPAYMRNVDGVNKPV
Experimental: as §1

mouse vas deferens = assay: Agonist activity in MVD smooth muscle preparation, inhibition of contraction; assay type: cell-based; details: read-out: agonist activity MVD IC50 (nM) or % max resp
Experimental: as §2, §3

[4] = pyridomorphinans, [3H]DAMGO (1.4–2.0 nM), rat brain membranes, read-out: Ki (nM) ± SEM μ
[5] = pyridomorphinans, [3H]U69,593 (1.2–2.2 nm), guinea pig brain membranes, read-out: Ki (nM) ± SEM κ1

SMILES | Ki (μ opioid receptor) | Kb [1] | antagonist activity DPDPE (δ) MVD IC50 ratio [1] | Ke selectivity ratio μδ [1] | antagonist activity PL017 (μ) GPI IC50 ratio [2] | antagonist activity PL017 (μ) GPI Ke [2] | Ki (δ opioid receptor) | Selectivity Ratio κ1δ (δ opioid receptor; pyridomorphinans) | Selectivity Ratio μ/δ (δ opioid receptor; pyridomorphinans) | inhibition at 1 µM [3] | Ki (κ1 opioid receptor) | inhibition at 1 µM (mouse vas deferens) | Ki (μ opioid receptor; [4]) | Ki (κ1 opioid receptor; [5]) | Ki (δ opioid receptor; pyridomorphinans, [3H]DADLE (1.3–2.0 nM), rat brain membranes, 100 nM DAMGO to block μ-sites, read-out: Ki (nM) ± SEM δ) | Selectivity Ratio κ1δ (δ opioid receptor; thienomorphinans) | Selectivity Ratio μ/δ (δ opioid receptor; thienomorphinans) | agonist activity GPI IC50 (nM) or % max resp ([3]; percentage inhibition of contraction at 1 μM)
Oc1ccc2c3c1OC1c4ncc(Br)cc4CC4(O)C(C2)N(CC2CC2)CCC314 (stereo not drawn) [Compound 7b, 5′-Bromo-17-(cyclopropylmethyl)-6,7-didehydro-3,14-dihydroxy-4,5α-epoxypyrido[2′,3′:6,7]morphinan] | 15.5 ± 1 nM | 3.1 nM | 325 ± 127 | 14 | 43.9 ± 25.6 | 23 nM | 1.2 ± 0.13 nM | 46 | 13 | 0% | 55.7 ± 7 nM | 0% |  |  |  |  |  | 
N#Cc1cnc2c(c1)CC1(O)C3Cc4ccc(O)c5c4C1(CCN3CC1CC1)C2O5 (stereo not drawn) [Compound 7c, 5′-Cyano-17-(cyclopropylmethyl)-6,7-didehydro-3,14-dihydroxy-4,5α-epoxypyrido[2′,3′:6,7]morphinan] | 16 ± 1.8 nM | 44 nM | 23.6 ± 2.2 |  | 2.2 ± 1.1 |  | 4.5 ± 0.28 nM | 7.5 | 3.6 | 0% | 33.9 ± 2 nM | 0% |  |  |  |  |  | 
CCOC(=O)c1cnc2c(c1)C[C@@]1(O)[C@H]3Cc4ccc(O)c5c4[C@@]1(CCN3CC1CC1)[C@H]2O5 [Compound 7d, 5′-Carbethoxy-17-(cyclopropylmethyl)-6,7-didehydro-3,14-dihydroxy-4,5α-epoxypyrido[2′,3′:6,7]morphinan] |  | 20 nM |  |  |  | 74 nM |  |  |  | 0% |  | 0% | 37 ± 3.4 nM | 9.6 ± 0.93 nM |  |  |  | 
O=[N+]([O-])c1cnc2c(c1)CC1(O)C3Cc4ccc(O)c5c4C1(CCN3CC1CC1)C2O5 (stereo not drawn) [Compound 7e, 17-(Cyclopropylmethyl)-6,7-didehydro-3,14-dihydroxy-4,5α-epoxy-5′-nitropyrido[2′,3′:6,7]morphinan] | 17.5 ± 2 nM | 51 nM | 20.7 ± 4.2 | 5.3 | 4.7 ± 0.59 | 271 nM | 5.5 ± 0.67 nM | 17 | 3.2 | 0% | 92 ± 12.8 nM | 14% |  |  |  |  |  | 
Nc1cnc2c(c1)C[C@@]1(O)[C@H]3Cc4ccc(O)c5c4[C@@]1(CCN3CC1CC1)[C@H]2O5 [Compound 7f, 5′-Amino-17-(cyclopropylmethyl)-6,7-didehydro-3,14-dihydroxy-4,5α-epoxypyrido[2′,3′:6,7]morphinan] |  | 26 nM | 43.3 ± 9.0 | 1.9 | 23.4 ± 4.8 | 49 nM |  | 1.5 | 1.6 | 0% |  | 6% | 12.8 ± 0.93 nM | 12 ± 1.2 nM | 8 ± 0.3 nM |  |  | 
N#Cc1c(N)sc2c1[C@@H]1Oc3c(O)ccc4c3[C@@]13CCN(CC1CC1)[C@H](C4)[C@]3(O)C2 [Compound 8a, 5′-Amino-4′-cyano-17-(cyclopropylmethyl)-6,7-didehydro-3,14-dihydroxy-4,5α-epoxythieno [2′,3′:7,6]morphinan] | 5.5 ± 0.2 nM | 9.6 nM | 109.6 ± 12.1 | 0.9 | 160.3 ± 41.6 | 8.7 nM | 2.6 ± 0.11 nM |  |  | 0% | 1.5 ± 0.12 nM | 0% |  |  |  | 0.6 | 2.1 | 
Nc1sc2c(c1C(=O)OCc1ccccc1)[C@@H]1Oc3c(O)ccc4c3[C@@]13CCN(CC1CC1)[C@H](C4)[C@]3(O)C2 [Compound 8d, 5′-Amino-4′-benzyloxycarbonyl-17-(cyclopropylmethyl)-6,7-didehydro-3,14-dihydroxy-4,5α-epoxythieno[2′,3′:7,6]morphinan] | 61 ± 3 nM | 5 nM | 289 ± 13 |  |  |  | 7 ± 0.3 nM |  |  | 40% | 48 ± 3 nM | 11% |  |  |  | 6.9 | 8.7 | 40%
